Experimental data from US8148531B2 (Chroma Therapeutics Ltd., priority 2005, dated 2012).

Columns and labels:
Aurora-B = Aurora-B (Homo sapiens, UniProt Q96GD4); assay: Aurora-B enzyme assay (identical protocol as Aurora-A); assay type: biochemical; conditions: IC50 range class; read-out: Inhibitor Activity vs Aurora-B
Protocol: The ability of compounds to inhibit Aurora-A activity was measured using a simple microplate assay for Aurora-A activity, also suitable for high-throughput screening. In brief, γ-^33P-ATP and Aurora-A were incubated in a myelin basic protein (MBP)-coated Flashplate® to generate a scintillation signal. The plates were formatted to contain the inhibitor, controls, positive control (staurosporin) and blanks. After incubation at 37° C. for 1 hour and a subsequent wash procedure, the plates were read on a TopCount-NXT™.
IC50 values were determined by non-linear regression analysis, after fitting the data point results to the equation for sigmoidal dose response with variable slope (% activity against log concentration of compound), using Graphpad Prism software.
The Aurora-B enzyme assay follows the identical protocol as Aurora-A.

U937 cell line = assay: Cell inhibition assay (SRB cell viability), U937; assay type: cell-based; conditions: Homo sapiens, U-937, IC50 range class, 72 h, read-out: Inhibitor Activity vs U937 cell line
Protocol: (§1) The corresponding cancer cell lines (U937, HCT 116 and HUT) growing in log phase were harvested and seeded at 1000 cells/well (200 ul final volume) into 96-well tissue culture plates. Following 24 h of cell growth cells were treated with compounds (final concentration of 20 uM). Plates were then re-incubated for a further 72 h before a sulphorhodamine B (SRB) cell viability assay was conducted according to Skehan 1990 J Natl Canc Inst 82, 1107-1112.
(§2) Data were expressed as a percentage inhibition of the control, measured in the absence of inhibitor, as follows: — % inhibition=100−((S^i/S^o)×100) where S^i is the signal in the presence of inhibitor and S^o is the signal in the presence of DMSO.
(§3) IC50 values were determined by non-linear regression analysis, after fitting the results of eight data points to the equation for sigmoidal dose response with variable slope (% activity against log concentration of compound), using Graphpad Prism software.

HCT 116 cell line = assay: Cell inhibition assay (SRB cell viability), HCT 116; assay type: cell-based; conditions: Homo sapiens, IC50 range class, 72 h, read-out: Inhibitor Activity vs HCT 116 cell line
Protocol: as §1, §2, §3

HUT cell line = assay: Cell inhibition assay (SRB cell viability), HUT; assay type: cell-based; conditions: IC50 range class, 72 h, read-out: Inhibitor Activity vs HUT cell line
Protocol: as §1, §2, §3

Aurora-B, sequence (Q96GD4 whole entry): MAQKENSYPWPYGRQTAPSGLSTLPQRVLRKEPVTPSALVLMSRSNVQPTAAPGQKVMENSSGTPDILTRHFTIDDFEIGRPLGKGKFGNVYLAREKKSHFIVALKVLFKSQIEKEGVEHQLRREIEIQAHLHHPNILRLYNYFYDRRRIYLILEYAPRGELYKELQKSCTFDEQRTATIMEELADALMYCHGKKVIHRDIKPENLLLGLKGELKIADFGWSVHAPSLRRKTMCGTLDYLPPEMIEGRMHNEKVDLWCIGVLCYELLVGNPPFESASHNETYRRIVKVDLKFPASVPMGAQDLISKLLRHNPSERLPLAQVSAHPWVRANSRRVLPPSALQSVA

Structure (SMILES)	IC50 (Aurora-B)	IC50 (U937 cell line)	IC50 (HCT 116 cell line)	IC50 (HUT cell line)
COc1cc2c(Nc3cnn(CC(=O)Nc4ccccc4)c3)ccnc2cc1OCC[C@H](N)C(=O)O [Example 23, (S)-2-Amino-4-[6-methoxy-4-(1-phenylcarbamoylmethyl-1H-pyrazol-4-ylamino)-quinolin-7-yloxy]-butyric acid]	> 5 µM	–	–	–
COc1cc2nccc(Oc3ccc(NC(=O)c4ccccc4)cc3)c2cc1OCC[C@H](N)C(=O)OC1CCCC1 [Example 35, (S)-2-Amino-4-[4-(4-benzoylamino-phenoxy)-7-methoxy-quinolin-6-yloxy]-butyric acid cyclopentyl ester]	> 5 µM	< 1 µM	1 to 5 µM	1 to 5 µM
COc1cc2c(Oc3ccc(NC(=O)c4ccccc4)cc3)ccnc2cc1OCC[C@H](NC(C)=O)C(=O)OC1CCCC1 [Example 42, (S)-2-Acetylamino-4-[4-(4-benzoylamino-phenoxy)-6-methoxy-quinolin-7-yloxy]-butyric acid cyclopentyl ester]	2 to 5 µM	< 1 µM	< 1 µM	< 1 µM
COc1cc2c(Oc3ccc(NC(=O)c4ccc(C(F)(F)F)cc4)cc3)ccnc2cc1OCC[C@H](N)C(=O)OC1CCCC1 [Example 53, (S)-2-Amino-4-{6-methoxy-4-[4-(4-trifluoromethyl-benzoylamino)-phenoxy]-quinolin-7-yloxy}-butyric acid cyclopentyl ester]	< 2 µM	< 1 µM	< 1 µM	< 1 µM
COc1cc2c(Oc3ccc(NC(=O)c4cccc(F)c4)cc3)ccnc2cc1OCC[C@H](N)C(=O)O [Example 56, (S)-2-Amino-4-{4-[4-(3-fluoro-benzoylamino)-phenoxy]-6-methoxy-quinolin-7-yloxy}-butyric acid]	< 2 µM	–	–	–
COc1ccc(C(=O)Nc2ccc(Oc3ccnc4cc(OCC[C@H](N)C(=O)OC5CCCC5)c(OC)cc34)cc2)cc1 [Example 57, (S)-2-Amino-4-{6-methoxy-4-[4-(4-methoxy-benzoylamino)-phenoxy]-quinolin-7-yloxy}-butyric acid cyclopentyl ester]	2 to 5 µM	< 1 µM	1 to 5 µM	1 to 5 µM
COc1cc2c(Oc3ccc(NC(=O)C4CC4)cc3)ccnc2cc1OCC[C@H](N)C(=O)OC1CCCC1 [Example 59, (S)-2-Amino-4-{4-[4-(cyclopropanecarbonyl-amino)-phenoxy]-6-methoxy-quinolin-7-yloxy}-butyric acid cyclopentyl ester]	> 5 µM	< 1 µM	1 to 5 µM	1 to 5 µM
COc1cc2c(Oc3ccc(NC(=O)c4ccc(OC(F)(F)F)cc4)cc3)ccnc2cc1OCC[C@H](N)C(=O)O [Example 71, (S)-2-Amino-4-{6-methoxy-4-[4-(4-trifluoromethoxy-benzoylamino)-phenoxy]-quinolin-7-yloxy}-butyric acid]	2 to 5 µM	–	–	–
COc1cc2c(Oc3ccc(NS(=O)(=O)c4ccccc4)cc3)ccnc2cc1OCC[C@H](N)C(=O)O [Example 74, (S)-2-Amino-4-[4-(4-benzenesulfonylamino-phenoxy)-6-methoxy-quinolin-7-yloxy]-butyric acid]	2 to 5 µM	–	–	–
COc1cc2c(Oc3ccc(C(=O)Nc4ccccc4)cc3)ccnc2cc1OCC[C@H](N)C(=O)OC1CCCC1 [Example 77, (S)-2-Amino-4-[6-methoxy-4-(4-phenylcarbamoyl-phenoxy)-quinolin-7-yloxy]-butyric acid cyclopentyl ester]	> 5 µM	1 to 5 µM	> 5 µM	1 to 5 µM
COc1cc2c(Oc3ccc(NC(=O)Nc4ccc(C(F)(F)F)cc4)cc3F)ccnc2cc1OCCC[C@@H](N)C(=O)OC1CCCC1 [Example 123, (R)-2-Amino-5-(4-{2-fluoro-4-[3-(4-trifluoromethyl-phenyl)-ureido]-phenoxy}-6-methoxy-quinolin-7-yloxy)-pentanoic acid cyclopentyl ester]	–	< 1 µM	< 1 µM	< 1 µM
COc1cc2c(Oc3ccc(NC(=O)c4ccc(C(F)(F)F)cc4)cc3F)ccnc2cc1OCC[C@H](N)C(=O)OC1CCCC1 [Example 127, (S)-2-Amino-4-{4-[2-fluoro-4-(4-trifluoromethyl-benzoylamino)-phenoxy]-6-methoxy-quinolin-7-yloxy}-butyric acid cyclopentyl ester]	–	< 1 µM	< 1 µM	< 1 µM
COc1cc2c(Oc3ccc(NC(=O)c4ccccc4)cc3F)ccnc2cc1OCC[C@H](N)C(=O)OC1CCCC1 [Example 128, (S)-2-Amino-4-[4-(4-benzoylamino-2-fluoro-phenoxy)-6-methoxy-quinolin-7-yloxy]-butyric acid cyclopentyl ester]	2 to 5 µM	< 1 µM	< 1 µM	< 1 µM
COc1cc2c(Oc3ccc(NC(=O)c4ccccc4)c(F)c3)ccnc2cc1OCC[C@H](N)C(=O)OC1CCCC1 [Example 130, (S)-2-Amino-4-[4-(4-benzoylamino-3-fluoro-phenoxy)-6-methoxy-quinolin-7-yloxy]-butyric acid cyclopentyl ester]	–	< 1 µM	< 1 µM	< 1 µM
COc1cc2c(Oc3ccc(NC(=O)c4ccccc4)cc3OC)ccnc2cc1OCC[C@H](N)C(=O)OC1CCCC1 [Example 132, (S)-2-Amino-4-[4-(4-benzoylamino-2-methoxy-phenoxy)-6-methoxy-quinolin-7-yloxy]-butyric acid cyclopentyl ester]	–	< 1 µM	1 to 5 µM	1 to 5 µM
COc1cc2c(Oc3ccc(NC(=O)c4ccccc4)cn3)ccnc2cc1OCC[C@H](N)C(=O)OC1CCCC1 [Example 134]	–	< 1 µM	< 1 µM	< 1 µM
COc1cc2c(Oc3ccc(NC(=O)c4ccccc4)cc3)ccnc2cc1OC[C@@H]1CCCN1CC[C@H](N)C(=O)OC1CCCC1 [Example 135, (S)-2-Amino-4-{(S)-2-[4-(4-benzoylamino-phenoxy)-6-methoxy-quinolin-7-yloxymethyl]-pyrrolidin-1-yl}-butyric acid cyclopentyl ester]	–	< 1 µM	1 to 5 µM	1 to 5 µM
COc1cc2c(Oc3ccc(NC(=O)c4ccccc4)cc3)ccnc2cc1OCC1CCN(CC[C@H](N)C(=O)OC2CCCC2)CC1 [Example 136, (S)-2-Amino-4-{4-[4-(4-benzoylamino-phenoxy)-6-methoxy-quinolin-7-yloxymethyl]-piperidin-1-yl}-butyric acid cyclopentyl ester]	–	< 1 µM	< 1 µM	< 1 µM
COc1cc2c(Oc3ccc(NC(=O)c4ccccc4)cc3)ccnc2cc1OC1CCN(CC[C@H](N)C(=O)OC2CCCC2)C1 (stereo partly drawn) [Example 137, (S)-2-Amino-4-{3-[4-(4-benzoylamino-phenoxy)-6-methoxy-quinolin-7-yloxy]-pyrrolidin-1-yl}-butyric acid cyclopentyl ester]	–	< 1 µM	1 to 5 µM	< 1 µM
COc1cc2c(Oc3ccc(NCc4ccccc4)cc3)ccnc2cc1OCC[C@H](N)C(=O)OC1CCCC1 [Example 138, (S)-2-Amino-4-[4-(4-benzylamino-phenoxy)-6-methoxy-quinolin-7-yloxy]-butyric acid cyclopentyl ester]	–	< 1 µM	1 to 5 µM	< 1 µM
COc1cc2c(Oc3ccc(CC(=O)c4ccccc4)cc3)ccnc2cc1OCC[C@H](N)C(=O)OC1CCCC1 [Example 140, (S)-2-Amino-4-{6-methoxy-4-[4-(2-oxo-2-phenyl-ethyl)-phenoxy]-quinolin-7-yloxy}-butyric acid cyclopentyl ester]	–	< 1 µM	1 to 5 µM	< 1 µM
COc1cc2c(Oc3ccc(CNC(=O)c4ccccc4)cc3)ccnc2cc1OCC[C@H](N)C(=O)OC1CCCC1 [Example 141, (S)-2-Amino-4-{4-[4-(benzoylamino-methyl)-phenoxy]-6-methoxy-quinolin-7-yloxy}-butyric acid cyclopentyl ester]	–	< 1 µM	< 1 µM	< 1 µM
COc1cc2c(Nc3cc(C)[nH]n3)nc(Sc3ccccc3)nc2cc1OCC[C@H](N)C(=O)OC1CCCC1 [Example 143, (S)-2-Amino-4-[6-methoxy-4-(5-methyl-1H-pyrazol-3-ylamino)-2-phenylsulfanyl-quinazolin-7-yloxy]-butyric acid cyclopentyl ester]	–	1 to 5 µM	> 5 µM	1 to 5 µM
